Source: PubChem BioAssay (NCI)
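How tested: cells in 96-well plates exposed to compound for 48 hours at five concentrations. GI50 is the concentration that inhibits growth by half. TGI: concentration producing complete growth inhibition.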

Columns and labels:
Assay in all cases: NCI tumour cell line growth inhibition, 48 h
[1] = tested on: A549 NSCLC
[2] = tested on: EKVX NSCLC
[3] = tested on: HT29 colon
[4] = tested on: NCI-H23 lung
[5] = tested on: SF-295 CNS
[6] = tested on: TK-10 renal
[7] = tested on: UACC-257 melanoma
[8] = tested on: UACC-62 melanoma
[9] = tested on: SK-MEL-2 melanoma
[10] = tested on: T-47D breast

Compound | TGI [1] | TGI [2] | TGI [3] | TGI [4] | TGI [5] | TGI [6] | TGI [7] | TGI [8] | TGI [9] | GI50 [1] | GI50 [2] | GI50 [3] | GI50 [4] | GI50 [5] | GI50 [9] | GI50 [6] | GI50 [7] | GI50 [8] | GI50 [10] | TGI [10]
CS(=O)(=O)CC1=Nc2nnc(CCCCCCCc3nnc4n3C(=O)C(CS(C)(=O)=O)=N4)n2C1=O | > 100 µM | > 100 µM | > 100 µM | > 100 µM | > 100 µM | > 100 µM | > 100 µM | > 100 µM |  |  |  |  |  |  |  |  |  |  |  | 
O=C(CCn1[nH]c(=O)c(Cl)c(Cl)c1=O)NOCCCc1ccccc1 | > 100 µM | > 100 µM | > 100 µM | > 100 µM | > 100 µM | > 100 µM | > 100 µM | > 100 µM | > 100 µM |  |  |  |  |  |  |  |  |  |  | 
CC(=O)[O][Pb]([O]C(C)=O)([c]1ccccc1)[c]1ccccc1 | > 100 µM | > 100 µM | > 100 µM | 13.4 µM | > 100 µM | > 100 µM | > 100 µM | 31.1 µM | 3.75 µM | > 100 µM | > 35 µM | 14.5 µM | 2.35 µM | 46.6 µM | 1.73 µM | > 53.1 µM | 6.88 µM | 3.88 µM |  | 
COc1cccc(C2=C(c3cn(C)c4ccccc34)C(=O)NC2=O)c1 | > 25 µM |  | > 25 µM | > 25 µM | > 25 µM | > 25 µM | > 25 µM | > 25 µM | > 25 µM | 10.8 µM |  | 7.96 µM | 13.9 µM | 11 µM | 8.79 µM | 13.3 µM | 15.7 µM | 11.5 µM | 6.82 µM | > 25 µM
O=C1C(Cl)=C(N/N=c2/[nH][nH]/c(=N/NC3=C(Cl)C(=O)c4ccccc4C3=O)c3ccccc23)C(=O)c2ccccc21 | 52.2 µM |  | 53.6 µM | 36.9 µM | 30.5 µM |  | 28.7 µM |  | 35.9 µM | 21.9 µM |  | 24.9 µM | 17.3 µM | 14.2 µM | 18.1 µM |  | 14.9 µM |  | 6.71 µM | 36.8 µM
CCN=C1C=CC(=C(c2ccc(N(C)C)cc2)c2ccc(N(C)C)cc2)c2ccccc21 | 0.176 µM | 0.488 µM | 0.207 µM | 0.211 µM | 0.423 µM | 1.31 µM | 0.0592 µM |  | 0.472 µM | 0.0312 µM | 0.0445 µM | 0.0326 µM | 0.03 µM | 0.122 µM | 0.101 µM | 0.0913 µM | 0.0234 µM |  | 0.0567 µM | 1.52 µM
COC12C=CC(CC1)c1c(O)ccc(O)c12 (stereo not drawn) | > 100 µM | > 100 µM | > 100 µM | > 100 µM | > 100 µM | > 67.1 µM | > 100 µM | > 100 µM | > 76.3 µM |  |  |  |  |  |  |  |  |  |  | 
Nc1ncnc2sc(=S)c3c(c12)CCC3 | > 100 µM | 58.8 µM | 62.8 µM | 56.8 µM | > 100 µM | > 100 µM | > 100 µM | 85.2 µM | > 100 µM | 44.8 µM | 18.9 µM | 29.8 µM | 21.1 µM | 39.6 µM | 81.8 µM | 39.6 µM | > 100 µM | 27.8 µM |  | 
Nc1cc(=O)[nH]c(SC2=NC(N)CC(O)C2)n1 (stereo not drawn) |  | > 100 µM | > 100 µM | > 100 µM | > 100 µM | > 100 µM | > 100 µM | > 100 µM | > 100 µM |  |  |  |  |  |  |  |  |  |  | 
COC(=O)[C@@H]1CSC(=S)N1C(=O)C[C@H]1CC=CC[C@H]1CC(=O)Sc1ccccc1 | 40.1 µM | 32.2 µM | 37.4 µM | 46.5 µM | 45.3 µM |  | 35.9 µM | 38.3 µM | 52 µM |  |  |  |  |  |  |  |  |  |  | 
OCC1OC(n2ccc3c2ncn2ncnc32)C(O)C1O (stereo not drawn) | > 100 µM |  | > 100 µM | > 100 µM | > 59.8 µM | > 100 µM | > 100 µM | > 100 µM | > 100 µM | 4.91 µM |  | 0.444 µM | 1.4 µM | 1.13 µM | 46.2 µM | 3.81 µM | > 70.4 µM | 8.42 µM | 0.273 µM | 5.54 µM
C=C1C(=O)OC2CC3(C)C=CC(=O)C(=C)C3CC12 (stereo not drawn) | 20.4 µM | 6.85 µM | 3.45 µM | 3.48 µM | 26.8 µM | 4.79 µM | 3.1 µM | 2.92 µM | 3.13 µM |  |  |  |  |  |  |  |  |  |  | 
C=C1C(=O)O[C@H]2C[C@@H](C)[C@@H]3CC(=O)OC[C@@]3(C)CC12 (stereo partly drawn) | > 100 µM | > 100 µM | 50.1 µM | 62.5 µM | 76.2 µM | 55.2 µM |  | 51.9 µM | > 100 µM |  |  |  |  |  |  |  |  |  |  | 
Cc1ccc2c(c1)C1(C)OC(CC(N)C1O)O2 (stereo not drawn) | > 100 µM | > 100 µM | > 100 µM | > 100 µM | > 100 µM | > 100 µM | > 100 µM | > 100 µM | > 100 µM |  |  |  |  |  |  |  |  |  |  | 
CN1CCc2c1nc(-c1ccccc1)c1c2N(C)CC1 | > 100 µM | > 100 µM | > 100 µM | > 100 µM | > 100 µM | > 100 µM | > 100 µM | > 100 µM | > 100 µM |  |  |  |  |  |  |  |  |  |  | 
O=S(=O)(c1ccc(NC(=S)NCc2cccnc2)cc1)N1CCCCC1 | > 100 µM |  | > 100 µM | > 100 µM | > 100 µM | > 100 µM | > 100 µM | > 100 µM | > 100 µM | 11 µM |  | 90.5 µM | 28.6 µM | 13 µM | 16.6 µM | 47.5 µM | 42.6 µM | 23.4 µM | 7.33 µM | > 100 µM
COc1ccccc1[N-]C(C1=C([O-])c2ccccc2C1=O)c1ccccc1.COc1ccccc1[N-]C(C1=C([O-])c2ccccc2C1=O)c1ccccc1.[Cu+2] (stereo not drawn) | 52.9 µM |  | > 100 µM | 61.2 µM | > 100 µM | 68.3 µM | > 100 µM | 42.4 µM |  | 4.63 µM |  | 18.2 µM | 7.17 µM | 5.33 µM |  | 31.7 µM | 12.9 µM | 6.66 µM |  | 
